Measured values as given in patent US20100279937A1, “Method of Inhibiting Angiogenesis, Tumorigenesis and Cathepsin Activity” (priority 2006, published 2010).

Key:
[1] = target: T1, cathepsin B (Homo sapiens, UniProt P07858); test: Secreted cathepsin B activity in U87MG conditioned media; assay type: biochemical; settings: 10 μM CA074-ME; overnight incubation
T1 construct: Levels of cathepsin B activity were also measured in U87MG CM alone or pre-incubated; endogenous in cells; host or cells: U87MG (ATCC), 3-day serum-free conditioned medium
Experimental: The human glioma cell line U87MG was established from surgically removed type III glioma/glioblastoma and obtained from ATCC. Cells (5×10^4 cells/ml) were plated in poly-L-lysine pre-coated dishes and grown at 37° C. in D-MEM (DME) supplemented with 100 U/ml penicillin, 100 μg/ml streptomycin and 10% heat-inactivated fetal bovine serum (FBS) (HyClone, Logan, Utah) in humidified atmosphere of 5% CO2/95% air until reached 80% confluence. Then, media were removed and the cells incubated for 3 days in serum-free DME to obtain conditioned media (CM). Conditioned media were collected and filtered (Millex-GV sterilizing filter membrane, 0.22 μm). Cells were then harvested for molecular and biochemical assays. […]

[2] = test system: U87MG cells; test: U87MG growth in semi-solid (soft) agar; assay type: cell-based, human; settings: 10 μM CA074-ME; Alamar Blue
Experimental: […] Approximately 15,000 cells±treatment were resuspended in 150 μl medium containing 0.3% agar, and seeded onto a well of a 24-well plate previously layered with 250 μl 0.6% agar. The solidified cell layer was covered with 50 μl DME±treatment which was replaced every three days over a 21 day period. Phase contrast images (6 fields/well) were captured using a digital video camera (Olympus U-CMT) and analyzed with Northern Eclipse v.5.0 software. Color images were transformed to grey scale, thresholded, and then converted to binary images. Number and area of colonies per field were calculated. In order to measure cell viability, at the end of the experiment, 40 μl alamar blue was added to each well and fluorescence readings were performed every 10 min for a period of 180 min. Experiments were repeated 2-3 times in triplicates.

Structure (SMILES): CCCNC(=O)[C@H]1O[C@@H]1C(=O)N[C@H](C(=O)N1CCC[C@H]1C(=O)OC)[C@@H](C)CC [CA074-ME, reference compound]
- inhibition of secreted cathepsin B activity in U87MG CM [1]: ~40%
- inhibition of U87MG colony formation in soft agar (efficacy) [2]: ~70%
